As a reminder, the MIC is the smallest concentration in the dilution series that meets the test's criterion for growth inhibition. A word on the IC50: it is the concentration that gives 50% inhibition.

In brackets after ≈: the same amount, converted by molar mass.

Data set [1] deals with Mycobacterium tuberculosis. Description: Antibacterial activity against Mycobacterium tuberculosis H37Rv assessed as inhibition of bacterial growth incubated for 7 days by alamar blue assay. To be noted: 168 h, time 7 day. The class given is functional. (In general: Resazurin is reduced to fluorescent resorufin, in cell work by metabolically active cells.)
The test system of data set [2] is Staphylococcus aureus. Description: Antibacterial activity against Staphylococcus aureus ATCC25923 assessed as inhibition of bacterial growth incubated for 18 hrs by microdilution broth assay. The class given is functional. On the technique in general: Broth dilution looks for growth in wells or tubes with falling amounts of substance.
Data set [3] has as its system Enterococcus faecalis. In words: Antibacterial activity against Enterococcus faecalis ATCC29212 assessed as inhibition of bacterial growth incubated for 18 hrs by microdilution broth assay. The class given is functional.
A further data set has as its system Bacillus subtilis. In words: Antibacterial activity against Bacillus subtilis ATCC6633 assessed as inhibition of bacterial growth incubated for 18 hrs by microdilution broth assay. Type of data set: functional.
For data set [4], the system named is Staphylococcus epidermidis. In words: Antibacterial activity against Staphylococcus epidermidis ATCC12228 assessed as inhibition of bacterial growth incubated for 18 hrs by microdilution broth assay. Type of data set: functional.
The nature of data set [5]: Cytotoxicity against African green monkey Vero cells incubated for 48 hrs by MTT assay. The class given is toxicity, cell-based, Chlorocebus sabaeus. For orientation: Tetrazolium dyes change colour on reduction, which living cells bring about.
Data set [6] deals with Staphylococcus aureus. Description: Antibacterial activity against methicillin resistant Staphylococcus aureus clinical isolate 20-1 assessed as inhibition of bacterial growth incubated for 7 days by alamar blue assay. The class given is functional. The following applies: clinical isolate 20-1, 168 h, time 7 day.
The subject of data set [7] is Staphylococcus aureus. In words: Antibacterial activity against methicillin resistant Staphylococcus aureus clinical isolate 20-2 assessed as inhibition of bacterial growth incubated for 7 days by alamar blue assay. To be noted: clinical isolate 20-2, 168 h, time 7 day. Type of data set: functional.
Data set [8] relates to Staphylococcus epidermidis. Description: Antibacterial activity against methicillin resistant Staphylococcus epidermidis clinical isolate 20-1 assessed as inhibition of bacterial growth incubated for 7 days by alamar blue assay. The following applies: clinical isolate 20-1, 168 h, time 7 day. The class given is functional.
For data set [9], the system named is Staphylococcus epidermidis. In words: Antibacterial activity against methicillin resistant Staphylococcus epidermidis clinical isolate 20-2 assessed as inhibition of bacterial growth incubated for 7 days by alamar blue assay. The class given is functional. To be noted: clinical isolate 20-2, 168 h, time 7 day.
Data set [10] deals with Staphylococcus aureus. Description: Antibacterial activity against vancomycin intermediate Staphylococcus aureus ATCC700699 assessed as inhibition of bacterial growth incubated for 7 days by alamar blue assay. The class given is functional. The following applies: ATCC700699, 168 h, time 7 day.
In a further data set the test system is Enterococcus. Description: Antibacterial activity against vancomycin resistant Enterococcus clinical isolate 20-1 assessed as inhibition of bacterial growth incubated for 7 days by alamar blue assay. The class given is functional. The following applies: clinical isolate 20-1, 168 h, time 7 day.
Data set [11] has as its system Staphylococcus aureus. In words: Antibacterial activity against Linezolid resistant Staphylococcus aureus clinical isolate 20-1 assessed as inhibition of bacterial growth incubated for 7 days by alamar blue assay. Type of data set: functional. To be noted: clinical isolate 20-1, 168 h, time 7 day.
The subject of data set [12] is Staphylococcus aureus. Description: Antibacterial activity against Linezolid resistant Staphylococcus aureus clinical isolate 20-2 assessed as inhibition of bacterial growth incubated for 7 days by alamar blue assay. Type of data set: functional. The following applies: clinical isolate 20-2, 168 h, time 7 day.
For data set [13], the system named is Enterococcus faecalis. In words: Antibacterial activity against Linezolid resistant Enterococcus faecalis clinical isolate 20-1 assessed as inhibition of bacterial growth incubated for 7 days by alamar blue assay. The following applies: clinical isolate 20-1, 168 h, time 7 day. Type of data set: functional.
Data set [14] relates to Enterococcus faecalis. In words: Antibacterial activity against Linezolid resistant Enterococcus faecalis clinical isolate 20-2 assessed as inhibition of bacterial growth incubated for 7 days by alamar blue assay. The class given is functional. The following applies: clinical isolate 20-2, 168 h, time 7 day.
The nature of data set [15]: Metabolic stability in ICR mouse liver microsomes assessed as compound remaining at 10 uM incubated for 60 mins in absence of NADPH by LC-MS/MS analysis. The class given is ADME, Microsome. To be noted: read-out: Stability.
Data set [16] is described as follows: Metabolic stability in human liver microsomes assessed as compound remaining at 10 uM incubated for 60 mins in absence of NADPH by LC-MS/MS analysis. Type of data set: ADME, Microsome. To be noted: read-out: Stability.
The nature of data set [17]: Metabolic stability in ICR mouse liver microsomes assessed as substrate remaining at 10 uM incubated for 60 mins in presence of NADPH by LC-MS/MS analysis. To be noted: read-out: Stability. Type of data set: ADME, Microsome.
A short description of data set [18]: Metabolic stability in human liver microsomes assessed as substrate remaining at 10 uM incubated for 60 mins in presence of NADPH by LC-MS/MS analysis. Type of data set: ADME, Microsome. To be noted: read-out: Stability.

For the compound `CC(=O)NC[C@@H]1OC(=O)N2Cc3cc(-c4ccc(C(F)(F)F)nc4)c(F)cc3O[C@@H]12`, the MIC came out at 6.7 µg/mL (≈ 15.8 µM) in data set [1]; 32 µg/mL (≈ 75.2 µM) in the data set with Staphylococcus aureus [2]; 1 µg/mL (≈ 2.35 µM) in the data set on Enterococcus faecalis [3]; 1 µg/mL (≈ 2.35 µM) in the data set with Bacillus subtilis; 0.5 µg/mL (≈ 1.18 µM) in [4].
For the compound `COC(=O)NC[C@@H]1OC(=O)N2Cc3cc(-c4ccc(C#N)nc4)c(F)cc3O[C@@H]12`, the MIC was 0.97 µg/mL (≈ 2.44 µM) in data set [1]; 8 µg/mL (≈ 20.1 µM) in the data set with Staphylococcus aureus [2]; 0.5 µg/mL (≈ 1.26 µM) in the data set on Enterococcus faecalis [3]; 0.125 µg/mL (≈ 0.314 µM) in the data set on Bacillus subtilis; 0.25 µg/mL (≈ 0.628 µM) in [4]; 0.5 µg/mL (≈ 1.26 µM) in the data set with Staphylococcus aureus [6]. Moreover, the MIC is 0.5 µg/mL (≈ 1.26 µM) in the data set with Staphylococcus aureus [7]; 0.25 µg/mL (≈ 0.628 µM) in data set [8]; 0.25 µg/mL (≈ 0.628 µM) in data set [9]; 1 µg/mL (≈ 2.51 µM) with Staphylococcus aureus [10]; 1 µg/mL (≈ 2.51 µM) in the data set on Enterococcus; 16 µg/mL (≈ 40.2 µM) with Staphylococcus aureus [11]. Also, the values for the minimal inhibitory concentration (MIC) with Staphylococcus aureus [12], in the data set on Enterococcus faecalis [13] and in the data set on Enterococcus faecalis [14] were 16 µg/mL (≈ 40.2 µM), 4 µg/mL (≈ 10 µM) and 4 µg/mL (≈ 10 µM), respectively. In [5], this compound returned a half-maximal inhibitory concentration (IC50) at 48 h of 33 µg/mL (≈ 82.8 µM). For the same compound, the remaining at 1 h, 10 µM came out at 113% in [15], 114% in data set [16], 116% in data set [17] and 103% in data set [18].
Turning to `CC(=O)NC[C@@H]1OC(=O)N2Cc3c(cc(F)c(-c4ccc(C#N)nc4)c3F)O[C@@H]12`, the MIC was 0.97 µg/mL (≈ 2.42 µM) in data set [1]; 1 µg/mL (≈ 2.5 µM) in the data set with Staphylococcus aureus [2]; 0.5 µg/mL (≈ 1.25 µM) with Enterococcus faecalis [3]; 0.032 µg/mL (≈ 0.0799 µM) with Bacillus subtilis; 0.125 µg/mL (≈ 0.312 µM) in data set [4]; 1 µg/mL (≈ 2.5 µM) in the data set with Staphylococcus aureus [6]. In addition, the minimal inhibitory concentration (MIC) with Staphylococcus aureus [7] was found to be 1 µg/mL (≈ 2.5 µM); in data set [8], 0.5 µg/mL (≈ 1.25 µM); in data set [9] it was 0.5 µg/mL (≈ 1.25 µM); with Staphylococcus aureus [10] it was 1 µg/mL (≈ 2.5 µM); in the data set on Enterococcus, 1 µg/mL (≈ 2.5 µM); in the data set with Staphylococcus aureus [11], 8 µg/mL (≈ 20 µM). The results for the minimum inhibitory concentration (MIC) in the data set with Staphylococcus aureus [12], with Enterococcus faecalis [13] and in the data set on Enterococcus faecalis [14] were 8 µg/mL (≈ 20 µM), 2 µg/mL (≈ 5 µM) and 2 µg/mL (≈ 5 µM), respectively. In data set [5], this compound yielded an IC50 at 48 h of over 64 µg/mL.
Regarding `CC(=O)NC[C@H]1OC(=O)N2Cc3c(cc(F)c(-c4ccc(C#N)nc4)c3F)O[C@H]12`, the minimal inhibitory concentration (MIC) was over 32 µg/mL in data set [1]; over 64 µg/mL with Staphylococcus aureus [2]; over 64 µg/mL in the data set on Enterococcus faecalis [3]; over 64 µg/mL with Bacillus subtilis; over 64 µg/mL in data set [4].
Turning to `COc1ccc(-c2c(F)cc3c(c2F)CN2C(=O)O[C@@H](CNC(C)=O)[C@@H]2O3)cn1`, the minimum inhibitory concentration (MIC) in [1] was 6.75 µg/mL (≈ 16.7 µM); with Staphylococcus aureus [2], 8 µg/mL (≈ 19.7 µM); in the data set on Enterococcus faecalis [3], 0.5 µg/mL (≈ 1.23 µM); with Bacillus subtilis it was 0.032 µg/mL (≈ 0.0789 µM); in data set [4], 0.5 µg/mL (≈ 1.23 µM).
Take `CC(=O)c1ccc(-c2c(F)cc3c(c2F)CN2C(=O)O[C@@H](CN)[C@@H]2O3)cc1`: the minimal inhibitory concentration (MIC) in data set [1] was 0.43 µg/mL (≈ 1.15 µM); with Staphylococcus aureus [2], 64 µg/mL (≈ 171 µM); with Enterococcus faecalis [3], over 64 µg/mL; in the data set with Bacillus subtilis, over 64 µg/mL; in [4] it was 64 µg/mL (≈ 171 µM). Besides, in data set [5], the 50% inhibitory concentration (IC50) at 48 h is 34 µg/mL (≈ 90.8 µM).
Regarding `Cn1nnc(-c2ccc(-c3c(F)cc4c(c3F)CN3C(=O)O[C@@H](CN)[C@@H]3O4)cn2)n1`, the minimal inhibitory concentration (MIC) was 0.74 µg/mL (≈ 1.78 µM) in data set [1]; over 64 µg/mL in the data set with Staphylococcus aureus [2]; over 64 µg/mL in the data set with Enterococcus faecalis [3]; 64 µg/mL (≈ 154 µM) in the data set on Bacillus subtilis; 64 µg/mL (≈ 154 µM) in data set [4]. In [5], this compound had an IC50 at 48 h of 16 µg/mL (≈ 38.5 µM).
Take `COC(=O)NC[C@@H]1OC(=O)N2Cc3cc(-c4ccc(C(C)=O)cc4)c(F)cc3O[C@@H]12`: the MIC in data set [1] is 1.74 µg/mL (≈ 4.2 µM); in the data set with Staphylococcus aureus [2] it was over 64 µg/mL; with Enterococcus faecalis [3] it was 0.5 µg/mL (≈ 1.21 µM); in the data set with Bacillus subtilis it was 0.125 µg/mL (≈ 0.302 µM); in data set [4] it was 0.5 µg/mL (≈ 1.21 µM).
In the case of `COc1cc(-c2cc3c(cc2F)O[C@H]2[C@H](CNC(C)=O)OC(=O)N2C3)ccn1`, the MIC in data set [1] is 6.51 µg/mL (≈ 16.8 µM); in the data set on Staphylococcus aureus [2] it was 4 µg/mL (≈ 10.3 µM); in the data set on Enterococcus faecalis [3], 1 µg/mL (≈ 2.58 µM); in the data set with Bacillus subtilis it was 0.5 µg/mL (≈ 1.29 µM); in [4], 2 µg/mL (≈ 5.16 µM). Besides, the IC50 at 48 h in [5] was 36 µg/mL (≈ 92.9 µM).
Consider `CC(=O)NC[C@@H]1OC(=O)N2Cc3cc(-c4ccc5c(c4)NC(=O)CO5)c(F)cc3O[C@@H]12`, for which the MIC in [1] worked out at 0.9 µg/mL (≈ 2.11 µM); in the data set on Staphylococcus aureus [2], 32 µg/mL (≈ 74.9 µM); in the data set with Enterococcus faecalis [3], 1 µg/mL (≈ 2.34 µM); in the data set on Bacillus subtilis, 16 µg/mL (≈ 37.4 µM); in data set [4] it was 2 µg/mL (≈ 4.68 µM). Also, 40 µg/mL (≈ 93.6 µM) corresponded to half-maximal inhibition in data set [5] (IC50 at 48 h).
In the case of `CC(=O)NC[C@@H]1OC(=O)N2Cc3cc(-c4ccc(C(C)=O)cc4)c(F)cc3O[C@@H]12`, the minimum inhibitory concentration (MIC) turned out to be 0.74 µg/mL (≈ 1.86 µM) in [1]; 8 µg/mL (≈ 20.1 µM) in the data set with Staphylococcus aureus [2]; 1 µg/mL (≈ 2.51 µM) with Enterococcus faecalis [3]; 0.5 µg/mL (≈ 1.26 µM) with Bacillus subtilis; 2 µg/mL (≈ 5.02 µM) in data set [4]. For the same compound, half-maximal inhibition in [5] (IC50 at 48 h) was put at 49 µg/mL (≈ 123 µM).

Source of the values: ChEMBL document CHEMBL5608235, “Tricyclic Benzo[1,3]oxazinyloxazolidinones as Potent Antibacterial Agents against Drug-Resistant Pathogens” (J Med Chem, 2024).
